System: plants
Assay: Test D pre-emergence, other plants of Tables D1 and D3
Type: in vivo
Details: preemergent, 20 DAA
Method: A formulation containing 50 g/L of the test chemical was prepared by dissolving the active ingredient in a mixture of organic solvents and emulsifier, details of which are provided in the table. This formulation was then mixed with a small, variable amount of acetone to aid dissolution, before addition of a 0.2% v/v aqueous solution of an adjuvant, as the aqueous diluent, to form an aqueous spray solution which contains a predetermined concentration of the active ingredient.
This aqueous spray solution was then sprayed onto plants including maize and wheat that had been seed treated with a herbicide safener, after one day's cultivation (for pre-emergence) or after about 12 days' cultivation (for post-emergence). The plants were grown from seeds sown in standard soil, placed in a glasshouse under controlled conditions (at 24/18° C. or 20/16° C., day/night; 16 h light; 65% humidity). After spray application the plants were then grown in a glasshouse under the same conditions and watered twice daily. After 15 d for post-emergence and 20 DAA for pre-emergence the test was evaluated (100=total damage to plant; 0=no damage to plant).

CN1CC(c2cc(C(F)(F)F)n(C)n2)C(C(=O)Nc2ccc(F)cc2F)C1=O (racemic) [Compound 6]
damage to plant (100=total damage to plant; 0=no damage to plant), ABUTH (rate 15): 0 | damage to plant (100=total damage to plant; 0=no damage to plant), ABUTH (rate 30): 0 | damage to plant (100=total damage to plant; 0=no damage to plant), ABUTH (rate 60): 0 | damage to plant (100=total damage to plant; 0=no damage to plant), ABUTH (rate 130): 0 | damage to plant (100=total damage to plant; 0=no damage to plant), ABUTH (rate 250): 0 | damage to plant (100=total damage to plant; 0=no damage to plant), ABUTH (rate 500): 0 | damage to plant (100=total damage to plant; 0=no damage to plant), AMARE (rate 15): 0 | damage to plant (100=total damage to plant; 0=no damage to plant), AMARE (rate 30): 0 | damage to plant (100=total damage to plant; 0=no damage to plant), AMARE (rate 60): 0 | damage to plant (100=total damage to plant; 0=no damage to plant), AMARE (rate 130): 0 | damage to plant (100=total damage to plant; 0=no damage to plant), AMARE (rate 250): 0 | damage to plant (100=total damage to plant; 0=no damage to plant), AMARE (rate 500): 0 | damage to plant (100=total damage to plant; 0=no damage to plant), BIDPI (rate 15): 0 | damage to plant (100=total damage to plant; 0=no damage to plant), BIDPI (rate 30): 0 | damage to plant (100=total damage to plant; 0=no damage to plant), BIDPI (rate 60): 0 | damage to plant (100=total damage to plant; 0=no damage to plant), BIDPI (rate 130): 0 | damage to plant (100=total damage to plant; 0=no damage to plant), BIDPI (rate 250): 0 | damage to plant (100=total damage to plant; 0=no damage to plant), BIDPI (rate 500): 0 | damage to plant (100=total damage to plant; 0=no damage to plant), BRAPL (rate 15): 0 | damage to plant (100=total damage to plant; 0=no damage to plant), BRAPL (rate 30): 50 | damage to plant (100=total damage to plant; 0=no damage to plant), BRAPL (rate 60): 60 | damage to plant (100=total damage to plant; 0=no damage to plant), BRAPL (rate 130): 80 | damage to plant (100=total damage to plant; 0=no damage to plant), BRAPL (rate 250): 80 | damage to plant (100=total damage to plant; 0=no damage to plant), BRAPL (rate 500): 90 | damage to plant (100=total damage to plant; 0=no damage to plant), CYPES (rate 15): 0 | damage to plant (100=total damage to plant; 0=no damage to plant), CYPES (rate 30): 0 | damage to plant (100=total damage to plant; 0=no damage to plant), CYPES (rate 60): 0 | damage to plant (100=total damage to plant; 0=no damage to plant), CYPES (rate 130): 0 | damage to plant (100=total damage to plant; 0=no damage to plant), CYPES (rate 250): 10 | damage to plant (100=total damage to plant; 0=no damage to plant), CYPES (rate 500): 80 | damage to plant (100=total damage to plant; 0=no damage to plant), DIGSA (rate 15): 0 | damage to plant (100=total damage to plant; 0=no damage to plant), DIGSA (rate 30): 30 | damage to plant (100=total damage to plant; 0=no damage to plant), DIGSA (rate 60): 90 | damage to plant (100=total damage to plant; 0=no damage to plant), DIGSA (rate 130): 90 | damage to plant (100=total damage to plant; 0=no damage to plant), DIGSA (rate 250): 90 | damage to plant (100=total damage to plant; 0=no damage to plant), DIGSA (rate 500): 100 | damage to plant (100=total damage to plant; 0=no damage to plant), ECHCG (rate 15): 0 | damage to plant (100=total damage to plant; 0=no damage to plant), ECHCG (rate 30): 20 | damage to plant (100=total damage to plant; 0=no damage to plant), ECHCG (rate 60): 20 | damage to plant (100=total damage to plant; 0=no damage to plant), ECHCG (rate 130): 80 | damage to plant (100=total damage to plant; 0=no damage to plant), ECHCG (rate 250): 90 | damage to plant (100=total damage to plant; 0=no damage to plant), ECHCG (rate 500): 100 | damage to plant (100=total damage to plant; 0=no damage to plant), ELEIN (rate 15): 0 | damage to plant (100=total damage to plant; 0=no damage to plant), ELEIN (rate 30): 0 | damage to plant (100=total damage to plant; 0=no damage to plant), ELEIN (rate 60): 0 | damage to plant (100=total damage to plant; 0=no damage to plant), ELEIN (rate 130): 0 | damage to plant (100=total damage to plant; 0=no damage to plant), ELEIN (rate 250): 0 | damage to plant (100=total damage to plant; 0=no damage to plant), ELEIN (rate 500): 0 | damage to plant (100=total damage to plant; 0=no damage to plant), EPHHL (rate 15): 0 | damage to plant (100=total damage to plant; 0=no damage to plant), EPHHL (rate 30): 0 | damage to plant (100=total damage to plant; 0=no damage to plant), EPHHL (rate 60): 0 | damage to plant (100=total damage to plant; 0=no damage to plant), EPHHL (rate 130): 0 | damage to plant (100=total damage to plant; 0=no damage to plant), EPHHL (rate 250): 0 | damage to plant (100=total damage to plant; 0=no damage to plant), EPHHL (rate 500): 0 | damage to plant (100=total damage to plant; 0=no damage to plant), GLXMA (rate 15): 0 | damage to plant (100=total damage to plant; 0=no damage to plant), GLXMA (rate 30): 0 | damage to plant (100=total damage to plant; 0=no damage to plant), GLXMA (rate 60): 0 | damage to plant (100=total damage to plant; 0=no damage to plant), GLXMA (rate 130): 0 | damage to plant (100=total damage to plant; 0=no damage to plant), GLXMA (rate 250): 0 | damage to plant (100=total damage to plant; 0=no damage to plant), GLXMA (rate 500): 0 | damage to plant (100=total damage to plant; 0=no damage to plant), IPOHE (rate 15): 0 | damage to plant (100=total damage to plant; 0=no damage to plant), IPOHE (rate 30): 0 | damage to plant (100=total damage to plant; 0=no damage to plant), IPOHE (rate 60): 0 | damage to plant (100=total damage to plant; 0=no damage to plant), IPOHE (rate 130): 0 | damage to plant (100=total damage to plant; 0=no damage to plant), IPOHE (rate 250): 0 | damage to plant (100=total damage to plant; 0=no damage to plant), IPOHE (rate 500): 0 | damage to plant (100=total damage to plant; 0=no damage to plant), ORYSA (rate 15): 0 | damage to plant (100=total damage to plant; 0=no damage to plant), ORYSA (rate 30): 0 | damage to plant (100=total damage to plant; 0=no damage to plant), ORYSA (rate 60): 0 | damage to plant (100=total damage to plant; 0=no damage to plant), ORYSA (rate 130): 0 | damage to plant (100=total damage to plant; 0=no damage to plant), ORYSA (rate 250): 0 | damage to plant (100=total damage to plant; 0=no damage to plant), ORYSA (rate 500): 0 | damage to plant (100=total damage to plant; 0=no damage to plant), PANMI (rate 15): 0 | damage to plant (100=total damage to plant; 0=no damage to plant), PANMI (rate 30): 0 | damage to plant (100=total damage to plant; 0=no damage to plant), PANMI (rate 60): 0 | damage to plant (100=total damage to plant; 0=no damage to plant), PANMI (rate 130): 0 | damage to plant (100=total damage to plant; 0=no damage to plant), PANMI (rate 250): 0 | damage to plant (100=total damage to plant; 0=no damage to plant), PANMI (rate 500): 0 | damage to plant (100=total damage to plant; 0=no damage to plant), SETFA (rate 15): 0 | damage to plant (100=total damage to plant; 0=no damage to plant), SETFA (rate 30): 0 | damage to plant (100=total damage to plant; 0=no damage to plant), SETFA (rate 60): 10 | damage to plant (100=total damage to plant; 0=no damage to plant), SETFA (rate 130): 80 | damage to plant (100=total damage to plant; 0=no damage to plant), SETFA (rate 250): 90 | damage to plant (100=total damage to plant; 0=no damage to plant), SETFA (rate 500): 90 | damage to plant (100=total damage to plant; 0=no damage to plant), SORVU (rate 15): 0 | damage to plant (100=total damage to plant; 0=no damage to plant), SORVU (rate 30): 0 | damage to plant (100=total damage to plant; 0=no damage to plant), SORVU (rate 60): 0 | damage to plant (100=total damage to plant; 0=no damage to plant), SORVU (rate 130): 0 | damage to plant (100=total damage to plant; 0=no damage to plant), SORVU (rate 250): 0 | damage to plant (100=total damage to plant; 0=no damage to plant), SORVU (rate 500): 0

Reference: patent US20220281848A1, “PYRAZOLE-SUBSTITUTED PYRROLIDINONES AS HERBICIDES” (FMC Corporation, priority 2019, published 2022)
